According to US8598209B2, “P2X3, receptor antagonists for treatment of pain” (Merck Sharp & Dohme Corp., priority 2008, dated 2013):

Molecular target: T1, human P2X3 (Homo sapiens, UniProt P56373)
T1 construct: expressed in transfected cells
T1 sequence (P56373 1-397): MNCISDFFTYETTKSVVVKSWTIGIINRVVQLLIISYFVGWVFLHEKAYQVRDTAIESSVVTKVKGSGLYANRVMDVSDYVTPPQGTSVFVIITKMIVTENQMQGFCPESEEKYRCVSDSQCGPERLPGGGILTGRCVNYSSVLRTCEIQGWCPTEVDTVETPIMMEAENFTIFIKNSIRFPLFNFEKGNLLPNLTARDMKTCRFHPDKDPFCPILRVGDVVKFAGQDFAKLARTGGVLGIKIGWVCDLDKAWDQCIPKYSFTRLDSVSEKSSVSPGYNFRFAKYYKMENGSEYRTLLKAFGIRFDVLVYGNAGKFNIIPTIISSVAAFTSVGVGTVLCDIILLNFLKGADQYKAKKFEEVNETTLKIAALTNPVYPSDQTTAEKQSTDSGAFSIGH
Experiment: Intracellular Calcium Measurement to Assess Antagonist Affinity (FLIPR, Fluo-4), human P2X3 cells
Assay type: cell-based
Conditions: Intracellular Calcium Measurement to Assess Antagonist Affinity assay; agonist α,β-meATP at EC50
Source text: Generation of a Human P2X3 and P2X2/3 Stable Cell Line—
Human P2X3 receptor cDNA (Accession number NM_002559) was subcloned as a 5′XhoI and 3′HindIII fragment into the expression vector pcDNA5/FRT (Invitrogen). Human P2X2 receptor cDNA (Accession number NM_174873) was subcloned as a 5′EcoRI and 3′NotI fragment into the expression vector pIRESneo2 (BD Biosciences Clontech). The human P2X3 expression construct was transfected using Lipofectamine 2000 (Invitrogen) into Flp-in—293 cells (Invitrogen) according to the manufacturer's directions. Cells positive for flp-mediated recombination of […] P2X3 were selected using 150 μg/ml hygromycin. The stable human P2X3 cell line was co-transfected with the human P2X2 expression construct using Lipofectamine 2000 as above and co-transfected cells selected using […] hygromycin and 1 mg/ml G418. The stable P2X3 cell line was propagated in DMEM, 10% FBS, 100 μg/ml hygromycin, and 100 units/ml penicillin and 100 μg/ml streptomycin, and maintained at 37° and 95% humidity. The stable P2X2/3 cell line was propagated as above with the addition of 500 μg/ml G418.
Intracellular Calcium Measurement to Assess Antagonist Affinity—
A fluorescent imaging plate reader (FLIPR; Molecular Devices) was used to monitor intracellular calcium levels using the calcium-chelating dye Fluo-4 (Molecular Probes). The excitation and emission wavelengths used to monitor fluorescence were 488 nm and 530 nm, respectively. Cells expressing either human P2X3 or human P2X2/3 were plated at a density of 20,000 cells/well (20 μl/well) in 384-well black-walled plates approximately 20 hours before beginning the assay. On the day of the assay 20 μl of loading buffer (Hank's balanced salt solution, 2.5 mM CaCl2, 20 mM HEPES, 0.1% BSA, 2.5 mM probenecid, TR-40, Fluo-4, and 138 mM NMDG substituted for NaCl) is added and cells dye-loaded for 60 min in the dark at room temperature. Ten minutes prior to adding agonist, the antagonist was added in a volume of 10 μl and allowed to incubate at room temperature. During this period fluorescence data is collected at 3 sec intervals followed by 10 sec intervals. The agonist, α,β-meATP, is added at a 6× concentration ([α,β-meATP]final=EC50). Following agonist addition fluorescence was measured at 5 sec intervals and analyzed based on the increase in peak relative fluorescence units (RFU) compared to the basal fluorescence. Peak fluorescence was used to determine the inhibitory effect at each concentration of antagonist by the following equation: % Inhibition=100*(1−((RFU(drug)−RFU(control))/(RFU(DMSO only)−RFU(control)))) In vitro Electrophysiological Assay—

SMILES	IC50
Cc1noc([C@@H](C)NC(=O)c2cc(-c3ccc(F)cc3)c(=O)n(C(C)C)c2)n1 [Example 5.61, 5-(4-fluorophenyl)-1-isopropyl-N-[(1R)-1-(3-methyl-1,2,4-oxadiazol-5-yl)ethyl]-6-oxo-1,6-dihydropyridine-3-carboxamide]	48 nM
Cc1ccc(-c2cc(C(=O)N[C@H](C)c3nc(C)no3)cnc2OC(C)C)cc1 [Example 3.22]	42 nM
C[C@@H](NC(=O)c1cc(-c2ccc(F)cc2F)nc(C(C)(C)O)c1)c1ccc(C(F)(F)F)[n+]([O-])c1 [Example 1.62, 2-(2,4-Difluorophenyl)-6-(1-hydroxy-1-methylethyl)-N-{(1R)-1-[1-oxido-6-(trifluoromethyl)pyridin-3-yl]ethyl}isonicotinamide]	23 nM
Cc1ccc(-c2cc(C(=O)N[C@@H](C)c3nnc[nH]3)nc(-c3ccc(C)cc3)n2)cc1 [Example 2.1]	165 nM
